Data set [1] is described as follows: Intrinsic clearance in rat hepatocytes assessed per 10^-6 cells. In kind it is ADME, cell-based, Hepatocyte.
The target of the next data set is GTPase KRas (Homo sapiens, UniProt P01116, G12C). Nature of the data set: Inhibition of GDP bound biotinylated human C-terminal Avi/His6-tagged KRAS G12C mutant (1 to 166 residues) expressed in Escherichia coli BL21 (DE3) assessed as reduction in SOS1-mediated GDP/GTP nucleotide exchange by preventing recognition between KRAS G12C mutant and Ras binding domain of N-terminal Avi/GST-tagged Raf-1 (51 to 149 residues) preincubated for 4 hrs followed by SOS1 and GTPgammaS addition by FRET assay.

The nature of data set [2]: Distribution coefficient, log D of compound at pH 7.4. The conditions noted are these: octanol/water. Type of data set: physicochemical.
Data set [3] in a line: Intrinsic clearance in human liver microsomes. Type of data set: ADME, Microsome. The note with it: for microsomal CLint: liver microsomes, read-out: CLH.
Data set [4] is described as follows: Efflux ratio of apparent permeability in human Caco2 cells at 10 uM at pH 7.4. Type of data set: ADME, cell-based. The conditions noted are these: Caco-2, pH 7.4.
The next data set is described as follows: in vivo. The conditions noted are these: Han Wistar, rat, po, 2 umol/kg.
The nature of data set [5]: Volume of distribution at steady state in Han Wistar rat at 2 umol/kg, po or 1 umol/kg, iv. The note with it: in vivo.
Data set [6] can be described thus: Clearance in Han Wistar rat at 2 umol/kg, po or 1 umol/kg, iv. The note with it: in vivo.
A short description of data set [7]: GSH reactivity in PBS buffer assessed as half life at pH 7.4 and 37 degree C in presence of glutathione. Type of data set: physicochemical. The note with it: PBS buffer with glutathione.

The structures appear in SMILES notation.

For orientation: IC50 means the concentration that inhibits the measured activity by half. The logD is the decadic logarithm of the distribution of all forms, ionised or not, between an organic phase and buffer at a given pH. Broadly, the efflux ratio is a quotient of directional permeabilities that is used to spot active efflux. Usually bioavailability stands for the share of a dose that reaches the circulation, judged against a reference dose that is usually intravenous. The low end stands for little systemic uptake, the high end for much systemic uptake. As usually defined, the half-life is the time in which the quantity being followed falls by half.

`C=CC(=O)N1CCN2c3c(cnc4c(OC)c(-c5c(O)cccc5F)c(Cl)cc34)OC[C@H]2C1` (single isomer, unassigned; atropisomer 2) gave a hepatocyte intrinsic clearance in [1] of 56 µL/min. At GTPase KRas, the IC50 turned out to be 70 nM. Also, the logD in data set [2] (read-out: logD) stood at 3. In addition, the microsomal CLint in data set [3] was 40 µL/min/mg.

Compound `C=CC(=O)N1CCN2c3c(cnc4cc(-c5c(O)cccc5F)c(Cl)cc34)N(C)C[C@H]2C1` showed a hepatocyte intrinsic clearance in data set [1] of 99 µL/min. In addition, the efflux ratio at 10 µM in data set [4] is 1.5. In addition, the logD in [2] (read-out: logD) was found to be 4.1. Further, the microsomal CLint in data set [3] was found to be 26 µL/min/mg.

Consider `C=CC(=O)N1CCN2c3c(cnc4c(C)c(-c5c(O)cccc5F)c(Cl)cc34)OC[C@H]2C1` (single isomer, unassigned; atropisomer), for which the hepatocyte intrinsic clearance in data set [1] was determined as 40 µL/min. For the same compound, the logD in data set [2] (read-out: logD) amounted to 3.8. Besides, the microsomal CLint in data set [3] was determined as 28 µL/min/mg.

Consider `C=CC(=O)N1CCN2c3c(cnc4c(F)c(-c5c(O)cccc5F)c(Cl)cc34)N(C)C(=O)[C@H]2C1`, for which, in the data set “in vivo”, the bioavailability came out at 56%. For the same compound, the Vd in data set [5] was 0.8 L/kg. The compound also registered a clearance in data set [6] of 6 mL/min/kg. In addition, in data set [1], the hepatocyte intrinsic clearance turned out to be 10 µL/min. In addition, in data set [4], the efflux ratio at 10 µM is 1.5. Also, the half-life in data set [7] is 15.5 h. Also, in data set [2] (read-out: logD), the logD turned out to be 2.9. The microsomal CLint in data set [3] stood at 21 µL/min/mg.

Consider `C=CC(=O)N1CCN(c2ncnc3cc(-c4c(C)ccc5[nH]ncc45)c(Cl)cc23)CC1`, for which the hepatocyte intrinsic clearance in data set [1] amounted to 56 µL/min. In addition, at GTPase KRas, the IC50 is 496 nM. The logD in data set [2] (read-out: logD) is 3.5. Further, the microsomal CLint in data set [3] came to 38 µL/min/mg.

`C=CC(=O)N1C[C@@H]2COc3cnc4cc(-c5c(O)cccc5F)c(Cl)cc4c3N2C[C@H]1C` returned a bioavailability in the data set “in vivo” of 96%. In data set [5], this compound came in with a Vd of 0.6 L/kg. Also, the clearance in [6] amounted to 7 mL/min/kg. Also, in data set [1], the hepatocyte intrinsic clearance was 42 µL/min. Also, the efflux ratio at 10 µM in data set [4] turned out to be 0.7. Further, the IC50 on GTPase KRas is 52 nM. Moreover, in data set [7], the half-life worked out at 5.42 h. Also, the logD in data set [2] (read-out: logD) stood at 3.8. Moreover, the microsomal CLint in data set [3] was determined as 32 µL/min/mg.

As to `C=CC(=O)N1C[C@@H]2COc3cnc4cc(-c5c(O)cccc5F)c(Cl)cc4c3N2C[C@@H]1C`, the hepatocyte intrinsic clearance in data set [1] is 74 µL/min. At GTPase KRas, the IC50 came to 7650 nM. In addition, the half-life in data set [7] was 9.75 h. Moreover, the logD in [2] (read-out: logD) was 3.7. Besides, the microsomal CLint in [3] was 100 µL/min/mg.

The compound `C=CC(=O)N1CCN2c3c(cnc4cc(-c5c(O)cccc5F)c(Cl)cc34)NC[C@H]2C1` had a hepatocyte intrinsic clearance in data set [1] of 17 µL/min. Further, the efflux ratio at 10 µM in data set [4] is 1.4. Further, the log distribution coefficient (logD) in [2] (read-out: logD) is 3.3. Moreover, the microsomal CLint in [3] turned out to be 18 µL/min/mg.

In data set [1], `C=CC(=O)N1CCN2c3c(cnc4cc(-c5c(C)ccc6[nH]ncc56)c(Cl)cc34)OCC[C@@H]2C1` displayed a hepatocyte intrinsic clearance of 104 µL/min. Moreover, the IC50 on GTPase KRas turned out to be 4340 nM. In data set [3], the microsomal CLint worked out at 81 µL/min/mg.

Compound `C=CC(=O)N1CCN2c3c(cnc4cc(-c5c(C)ccc6[nH]ncc56)c(Cl)cc34)OC[C@@H]2C1` (single isomer, unassigned; atropisomer 1) came in with a hepatocyte intrinsic clearance in data set [1] of 67 µL/min. For the same compound, on GTPase KRas, the IC50 came out at 8860 nM. This compound yielded a logD in data set [2] of 4. Further, the “Intrinsic clearance in human liver microsomes” value in data set [3] is 121 µL/min/mg.

As for `C=CC(=O)N1CCN2c3c(cnc4cc(-c5c(C)ccc6[nH]ncc56)c(Cl)cc34)OC[C@H]2C1` (single isomer, unassigned; atropisomer 1), the hepatocyte intrinsic clearance in [1] was found to be 174 µL/min. For the same compound, the logD in data set [2] (read-out: logD) worked out at 4.2. In addition, in [3], the “Intrinsic clearance in human liver microsomes” value was found to be 165 µL/min/mg.

For `C=CC(=O)N1CCN2c3c(cnc4cc(-c5c(O)cccc5F)c(Cl)cc34)N(C)C(=O)[C@H]2C1`, the hepatocyte intrinsic clearance in [1] is 7 µL/min. In data set [4], the efflux ratio at 10 µM was determined as 0.9. Also, at GTPase KRas, the 50% inhibitory concentration (IC50) was 150 nM. The logD in [2] (read-out: logD) is 3. In data set [3], the microsomal CLint is 24 µL/min/mg.

As for `C=CC(=O)N1CCN2c3c(cnc4cc(-c5c(O)cccc5F)c(Cl)cc34)NC(=O)[C@H]2C1`, the hepatocyte intrinsic clearance in data set [1] amounted to 11 µL/min. Further, the efflux ratio at 10 µM in data set [4] is 17.9. Besides, the IC50 at GTPase KRas is 73 nM. Moreover, in data set [2] (read-out: logD), the logD was 3. Besides, in data set [3], the microsomal CLint came out at 34 µL/min/mg.

The compound `C=CC(=O)N1CCN2c3c(cnc4cc(-c5c(C)ccc6[nH]ncc56)c(Cl)cc34)OC[C@H]2C1` (single isomer, unassigned; atropisomer 2) yielded a hepatocyte intrinsic clearance in data set [1] of 65 µL/min. The IC50 at GTPase KRas came to 1380 nM. In data set [2], the logD is on record as over 4.2. Also, the “Intrinsic clearance in human liver microsomes” value in data set [3] is 46 µL/min/mg.

With `C=CC(=O)N1CCN2c3c(cnc4c(F)c(-c5c(O)cccc5F)c(Cl)cc34)OC[C@H]2C1` (atropisomer aR), the hepatocyte intrinsic clearance in [1] was found to be 22 µL/min. For the same compound, the IC50 at GTPase KRas worked out at 16 nM. Besides, the logD in [2] (read-out: logD) turned out to be 3.4. Moreover, the microsomal CLint in [3] was determined as 17 µL/min/mg.

As for `C=CC(=O)N1CCN2c3c(cnc4cc(-c5c(C)ccc6[nH]ncc56)c(Cl)cc34)OCC[C@H]2C1`, the hepatocyte intrinsic clearance in [1] worked out at 102 µL/min. Also, the IC50 at GTPase KRas was 627 nM. Besides, in data set [3], the microsomal CLint is over 300 µL/min/mg.

Take `C=CC(=O)N1CCN2c3c(cnc4cc(-c5c(O)cccc5F)c(Cl)cc34)OC[C@H]2C1`: the bioavailability in the data set “in vivo” was 64%. The same compound had a Vd in data set [5] of 1.2 L/kg. The compound also returned a clearance in [6] of 35 mL/min/kg. In data set [1], this compound yielded a hepatocyte intrinsic clearance of 32 µL/min. Also, the efflux ratio at 10 µM in [4] was 0.5. In data set [7], the half-life was 6.93 h. In addition, the logD in [2] (read-out: logD) came out at 3.6. Moreover, the microsomal CLint in data set [3] is 25 µL/min/mg.

In data set [1], `C=CC(=O)N1CCN2c3c(cnc4cc(-c5c(C)ccc6[nH]ncc56)c(Cl)cc34)OC[C@@H]2C1` (single isomer, unassigned; atropisomer 2) registered a hepatocyte intrinsic clearance of 75 µL/min. The IC50 on GTPase KRas is 610 nM. Moreover, the logD in [2] (read-out: logD) worked out at 4.3. Besides, the microsomal CLint in data set [3] came to 103 µL/min/mg.

The values are drawn from ChEMBL document CHEMBL4402559, “Structure-Based Design and Pharmacokinetic Optimization of Covalent Allosteric Inhibitors of the Mutant GTPase KRASG12C” (J Med Chem, 2020).
